Data set [1] can be described thus: Cassette dosing oral pharmacokinetics in ICR mice. The class given is in vivo. To be noted: ICR (IcrTac:ICR), mouse; cassette oral dose 25 mg/kg, female ICR mice, plasma, 0-8 h, none in table. How it is done:
A cassette dosing procedure was utilized to determine pharmaceutical properties of compounds disclosed herein. In this procedure, compounds are selected for each cassette (i.e., cocktail) on the basis that mass spectrometric signals for each compound will not interfere with one another upon mass spectrometric analysis (e.g., will not overlap). The concentration of each compound in the dosing cassette often is about 20 mg/mL to achieve an oral dose level of 25 mg/kg in ICR mice. Aspects of the cassette dosing procedure are described hereafter.
Prepare 0.5 mL of 20 mg/mL dosing solution (in PBS or formulation vehicle) of 12 test compounds. Dilute a dosing solution 20 fold by transferring 10 μL of the stock solution into 190 μL acetonitrile containing 0.1% formic acid to achieve a final concentration of 1 mg/mL. Dilute further a 1 mg/mL solution 1,000 fold by transferring 1 μL of the stock solution into 999 μL acetonitrile containing 0.1% formic acid to achieve a final concentration of 1 μg/mL. Use the 1 μg/mL solution for mass spectrometric method development based on direct infusion. Determine parent/daughter mass spectra of each compound using multiple reaction monitoring (MRM). Compare parent/daughter mass spectra of each compound to assure no cross-reaction interference during LC-MS/MS measurements. Based on MRM mass spectra determine the composition of all cassettes.
Mix 250 μL of four prepared dosing solutions and an oral PK internal standard (20 mg/mL each) according to cassette design to achieve a final concentration of 4 mg/mL. Vortex cassettes rigorously and ultra-sonicate to obtain a clear solution or homogeneous suspension. Use the cassette solutions to dose animals by oral route of administration at 25 mg/kg.
All in vivo experiments follow protocols approved by the Animal Use and Care Committee. Female ICR mice (IcrTac:ICR), 8-10 weeks of age are obtained from Taconic (Hudson, N.Y.). Mice are housed on a 12 h/12 h light/dark cycle with ad libitum access to water and food. After a minimum two week acclimation period, the mice are randomized into groups with a minimum group size of four. The animals used for pharmacokinetic studies have a body-weight range of 25-35 g. A 25 mg/kg (4 mg/ml) dose of a cassette described in Example 1 is orally administered to mice that have been fasted overnight.
After compound administration, serial blood samples are collected via retro-orbital puncture with a capillary tube at various time points (15, 30 minutes and 1, 2, 4, 6 and 8 hours). The samples are transferred to a heparinized 0.5 mL microcentrifuge tube and placed on ice. Plasma is separated by centrifugation and samples are stored at −80° C. until assay.
Dilute a cassette dosing solution (4 mg/mL) four fold by transferring 25 μL of the stock solution into 75 μL of 50% acetonitrile containing 0.1% formic acid to achieve the concentration of 1 mg/mL. Dilute this stock solution further by serial dilutions to make 0.01, 0.1, 1 and 5 μg/mL working standard solutions.
Prepare 500 mL of 0.5 μg/mL solution of bioanalytical internal standard using 100% acetonitrile with 0.1% formic acid. Store the quenching solution in a tightly sealed bottle at 4° C.
Transfer 15 μL of blank mouse plasma to a 96 well plate and precipitate plasma proteins by pipetting of 120 μL of quenching solution to all plasma aliquots. Cover the plate with a matching plate mat and mix well for 30-60 seconds using a vertical multi-tube shaker.
Add 15 μL of the working standard solution of corresponding cassette to quenched plasma and vortex the plate for an additional 30-60 seconds. Then, centrifuge the plate at 4,000 rpm for 10 minutes at 4° C. Without disturbing the plasma protein pellet, transfer 120 μL of the supernatant to a new 96 well plate and dry the sample under nitrogen using a TurboVap® plate evaporator (Caliper Life Sciences; Hopkinton, Mass.). Reconstitute dried residues with 120 μL 20% acetonitrile containing 0.1% formic acid. […]

A short description of data set [2]: Pharmacokinetic evaluation IV bolus and oral (bioavailability) in ICR mice. The class given is in vivo. Conditions: mouse, plasma, IV 5 mg/kg and PO 25 mg/kg, read-out: Bioavailability (% F). How it is done: The pharmacokinetics properties of drugs are investigated in ICR mice following an intravenous (IV) bolus and oral (PO) doses of drug at 5 mg/kg and 25 mg/kg respectively. Blood samples are collected at predetermined times and the plasma separated. Plasma is separated from the blood samples collected at 5, 15 and 30 minutes and 1, 2, 4, 8 and 24 hours post-dose.
Drug levels are quantified by the LC/MS/MS method described below. Noncompartmental pharmacokinetic analysis is applied for intravenous administration. A linear trapezoidal rule is used to compute AUC(0-24) or AUC(0-8). The terminal t1/2 and C0 are calculated using the last three and the first three data points, respectively
Bioanalysis is performed using a Quattro Micro LC/MS/MS instrument in the MRM detection mode, with an internal standard (IS). Briefly, 15 μL plasma samples are prepared for analysis using protein precipitation with 120 μL of acetonitrile. The supernatants are transferred into a 96 well plate and subjected to LC-MS/MS analysis using a PHENOMENEX® Polar-RP HPLC column. The mobile phases are 10 mM NH4HCO3 in water (Solution-A) and 10 mM NH4HCO3 in methanol (Solution-B). The column is initially equilibrated with 25% Solution-B and followed with 100% Solution B over 5 minutes. The method has a dynamic range from 1 to 10,000 ng/mL. Quantitation of the analytes is performed in the batch mode with two bracketing calibration curves according to the bioanalytical sample list.

Take `CN1CCCCC1CNc1ccc2c(=O)c(C(=O)NCc3ccncc3)c3sc4ccccc4n3c2n1` (centres unmarked): in data set [1], the area under the curve AUC(0-t) worked out at 790 ng·h/mL. In data set [1], `CN1CCC(N(C)C(=O)c2c(=O)c3cc(F)c(N4CCOCC4)nc3n3c2sc2ccccc23)C1` (centres unmarked) came in with an AUC(0-t) of 2130 ng·h/mL. In turn, `O=C(NCCNC1CCC1)c1c(=O)c2ccc(N3CCOCC3)nc2n2c1sc1ccccc12` came in with an exposure AUC(0-t) in data set [1] of 3180 ng·h/mL. On the same count and under the same terms, the result for `Cn1ccnc1CNC(=O)c1c(=O)c2cc(N3CCOCC3)nnc2n2c1sc1ccccc12` reads 3780 ng·h/mL. `CN1CCN(c2ccc3c(=O)c(C(=O)NCc4ccccn4)c4sc5ccccc5n4c3n2)CC1`: the AUC(0-t) in data set [1] was found to be 51100 ng·h/mL. Besides, the bioavailability in data set [2] amounted to 41.4%. `O=C(NCCNCC(F)(F)F)c1c(=O)c2ccc(N3CCOCC3)nc2n2c1sc1ccccc12` yielded an AUC(0-t) in data set [1] of 9450 ng·h/mL. On to `CN1CCCC1CCNC(=O)c1c(=O)c2cc(F)c(N3CCOCC3)nc2n2c3ccccc3n(C)c12` (centres unmarked), for which the AUC(0-t) in data set [1] was found to be 1190 ng·h/mL. In data set [2], the bioavailability came out at 10.4%. Take `CN1CCN(c2nc3c(cc2F)c(=O)c(C(=O)NCc2cn(C)cn2)c2sc4ccccc4n23)CC1`: the AUC(0-t) in data set [1] was 45100 ng·h/mL.

As for `CN1CCCC(NC(=O)c2c(=O)c3cc(F)c(N4CCOCC4)nc3n3c2sc2ccccc23)C1` (centres unmarked), the AUC(0-t) in data set [1] worked out at 1030 ng·h/mL.

The compound `CN1CCCC1CNC(=O)c1c(=O)c2cc(F)c(N3CCOCC3)nc2n2c1sc1ccccc12` (centres unmarked) registered an AUC(0-t) in data set [1] of 3960 ng·h/mL. `O=C(NCCNCCF)c1c(=O)c2cc(F)c(N3CCOCC3)nc2n2c1sc1ccccc12` registered an AUC(0-t) in data set [1] of 2220 ng·h/mL. In data set [1], `Cc1nccn1CCNC(=O)c1c(=O)c2ccc(N3CCOCC3)nc2n2c1sc1ccccc12` registered an AUC(0-t) of 4380 ng·h/mL. In data set [1], `O=C(c1c(=O)c2ccc(N3CCOCC3)nc2n2c1sc1ccccc12)N1CCN(c2ccccn2)CC1` returned an AUC(0-t) of 1740 ng·h/mL.

Turning to `O=C(NCCN1CCCC1)c1c(=O)c2ccc(N3CCOCC3)nc2n2c1sc1ccccc12`, in data set [1], the AUC(0-t) came out at 2150 ng·h/mL. The bioavailability in data set [2] came to 10.7%. `O=C(NCCNC1CC1)c1c(=O)c2ccc(N3CCOCC3)nc2n2c1sc1ccccc12` [drawing 604] showed an AUC(0-t) in data set [1] of 5370 ng·h/mL. The bioavailability in data set [2] is 43.3%.

Consider `O=C(NCCN1CC=CC1)c1c(=O)c2ccc(N3CCOCC3)nc2n2c1sc1ccccc12`, for which the exposure AUC(0-t) in data set [1] worked out at 7940 ng·h/mL. The bioavailability in data set [2] was determined as 27.5%. With `CN1CCCC1CCNC(=O)c1c(=O)c2ccc(N3CCOCC3)nc2n2c1sc1ccccc12` (centres unmarked), in data set [1], the AUC(0-t) came out at 2590 ng·h/mL. The compound `CN1CCCC1CCNC(=O)c1cn2c3c(c(N4CCOCC4)c(F)cc3c1=O)Oc1ccccc1-2` (centres unmarked) came in with an AUC(0-t) in data set [1] of 1430 ng·h/mL. The compound `O=C(NCCNC1CC1)c1c(=O)c2cc(F)c(N3CCOCC3)nc2n2c1sc1ccccc12` came in with an AUC(0-t) in data set [1] of 5150 ng·h/mL. Regarding `O=C(NCCNCCF)c1c(=O)c2ccc(N3CCOCC3)nc2n2c1sc1ccccc12`, the AUC(0-t) in data set [1] was determined as 5020 ng·h/mL.

In data set [1], `CN1CCCCC1CNC(=O)c1c(=O)c2ccc(N3CCOCC3)nc2n2c1sc1ccccc12` (centres unmarked) had an AUC(0-t) of 1050 ng·h/mL. Compound `CN1CCCC1CCNC(=O)c1c(=O)c2cc(F)c(N3CCOCC3)nc2n2c1sc1ccccc12` (centres unmarked) registered an AUC(0-t) in data set [1] of 3810 ng·h/mL. For the same compound, the bioavailability in data set [2] was determined as 22.4%.

`O=C(NNC1=NCCN1)c1c(=O)c2cc(F)c(N3CCOCC3)nc2n2c1sc1ccccc12` returned an AUC(0-t) in data set [1] of 2430 ng·h/mL. In addition, in data set [2], the bioavailability amounted to 0.1%.

Take `O=C(NCCN1CCC(O)C1)c1c(=O)c2cc(F)c(N3CCOCC3)nc2n2c1sc1ccccc12` (centres unmarked): the AUC(0-t) in data set [1] turned out to be 1090 ng·h/mL.

Compound `O=C(NCCN1CCOCC1)c1c(=O)c2ccc(N3CCOCC3)nc2n2c1sc1ccccc12` showed an AUC(0-t) in data set [1] of 2980 ng·h/mL. In turn, `Cn1ccnc1CNC(=O)c1c(=O)c2ccc(N3CCOCC3)nc2n2c1sc1ccccc12` showed an AUC(0-t) in data set [1] of 5490 ng·h/mL. Further, the bioavailability in data set [2] was determined as 17.9%. `Cn1ccnc1CNC(=O)c1c(=O)c2cc(F)c(N3CCOCC3)nc2n2c1sc1ccccc12` came in with an AUC(0-t) in data set [1] of 20300 ng·h/mL. In addition, in data set [2], the bioavailability was 15.8%. As for `CN1CCCN(C(=O)c2c(=O)c3cc(F)c(N4CCOCC4)nc3n3c2sc2ccccc23)CC1`, the AUC(0-t) in data set [1] came out at 4230 ng·h/mL. In data set [1], `Cc1cnc(CNC(=O)c2c(=O)c3ccc(N4CCN(C)CC4)nc3n3c2sc2ccccc23)cn1` [drawing 619] displayed an AUC(0-t) of 166000 ng·h/mL. Same read-out and setting: the result for `O=C(NCC1CCCN1)c1c(=O)c2cc(F)c(N3CCOCC3)nc2n2c1sc1ccccc12` (centres unmarked) reads 1050 ng·h/mL; that for `O=C(NCCN1CC=CCC1)c1c(=O)c2ccc(N3CCOCC3)nc2n2c1sc1ccccc12`, 632 ng·h/mL. For `Cn1cncc1CNC(=O)c1c(=O)c2ccc(N3CCOCC3)nc2n2c1sc1ccccc12`, in data set [1], the AUC(0-t) came to 2920 ng·h/mL. For the same compound, the bioavailability in data set [2] was determined as 12.4%. For `Cn1c2ccccc2n2c3nc(N4CCOCC4)ccc3c(=O)c(C(=O)NCCN3CCCC3)c12`, the AUC(0-t) in data set [1] amounted to 1260 ng·h/mL.

`O=C(NCCNCC1CCCO1)c1c(=O)c2ccc(N3CCOCC3)nc2n2c1sc1ccccc12` (centres unmarked) registered an AUC(0-t) in data set [1] of 1900 ng·h/mL. For the same compound, the bioavailability in data set [2] was 2%. `CN1CCN(C(=O)c2c(=O)c3cc(F)c(N4CCOCC4)nc3n3c2sc2ccccc23)CC1`: the AUC(0-t) in data set [1] was 6160 ng·h/mL. In data set [2], the bioavailability came out at 30.3%. In data set [1], `O=C(NCCn1ccnc1)c1c(=O)c2ccc(N3CCOCC3)nc2n2c1sc1ccccc12` showed an AUC(0-t) of 4030 ng·h/mL. On the same count and under the same terms, the result for `CN1CCN(c2ccc3c(=O)c(C(=O)NC4CC4)c4n(C)c5ccccc5n4c3n2)CC1` reads 5200 ng·h/mL.

`O=C(NCCN1CCCC1)c1c(=O)c2cc(F)c(N3CCOCC3)nc2n2c1sc1ccccc12` yielded an AUC(0-t) in data set [1] of 2260 ng·h/mL. On to `O=C(NCCN1CC=CC1)c1c(=O)c2cc(F)c(N3CCOCC3)nc2n2c1sc1ccccc12`, for which, in data set [1], the AUC(0-t) was determined as 2000 ng·h/mL. The compound `Cn1c2ccccc2n2c3nc(N4CCOCC4)c(F)cc3c(=O)c(C(=O)N3CCN4CCCC4C3)c12` (centres unmarked) registered an AUC(0-t) in data set [1] of 3210 ng·h/mL. `O=C(NCCN1CC=CC1)c1cn2c3c(c(N4CCC(c5cnccn5)C4)c(F)cc3c1=O)Oc1cc3ccccc3cc1-2` (centres unmarked) gave an AUC(0-t) in data set [1] of 8040 ng·h/mL.

Compound `O=C(c1c(=O)c2ccc(N3CCOCC3)nc2n2c1sc1ccccc12)N1CCN(c2ncccn2)CC1` registered an AUC(0-t) in data set [1] of 15300 ng·h/mL. Further, the bioavailability in data set [2] is 31.1%.

With `Cn1c2ccccc2n2c3nc(N4CCOCC4)c(F)cc3c(=O)c(C(=O)NCCN3CCCC3)c12`, the AUC(0-t) in data set [1] is 2000 ng·h/mL.

The values above are taken from patent publication US8853234B2, “Quinolone analogs and methods related thereto” (Senhwa Biosciences, Inc., priority 2007, dated 2014).
